In patent EP1501797B1, “3-(SUBSTITUTED AMINO)-1H-INDOLE-2-CARBOXYLIC ACID ESTER AND 3-(SUBSTITUTED AMINO)-BENZO[B]THIOPHENE-2-CARBOXYLIC ACID ESTER DERIVATIVES AS INTERLEUKIN-4 GENE EXPRESSION INHIBITORS” (Aventis Pharmaceuticals Inc., priority 2002, dated 2003):

Experiments:
IFN-γ = test: Human primary Th1 (NYTh1) cells, IFN-γ ELISA; format: cell-based; settings: data from 8 different experiments combined
Procedure: Briefly, CD4^+CD45RA^+ T cells, isolated from donor peripheral blood mononuclear cells of healthy donors, are educated in the presence of anti-CD3/CD28 antibodies and various growth factors to obtain either a Thl-like or Th2-like phenotypes as determined by the known cytokine profiles of these two cell types.
Generation of Th1/Th2 cells: Twenty four well plates are coated with 300 µL anti-CD3 Ab (10 µg/ml, in PBS 1-2 h at 37°C or overnight at 4°C), and washed two times with PBS. CD4^+/CD45RA^+ cells at a density of 10^6/ml in RPMI, is prepared and added to RPMI medium containing 10% Hyclone serum/ glutamine and 1-2 µg/ml anti-CD28 Ab. The cells are split in two aliquots. […] The degree of polarization is determined by intracellular staining of cells with anti-IFN-γ and anti-IL-4 antibodies from Pharmingen, and using flow cytometry from Becton Dickinson (BD), according to manufacturers description. […] For compound testing, large quantities of Th1 and Th2 cells derived from a given donor (NYTh1 and NYTh2) were expanded and frozen as aliquots in liquid nitrogen. […]
Re-stimulation by allogeneic cells: Human PBMCs, to be used as alloantigens, are isolated from freshly drawn blood by Ficoll separation. […] Cells are counted and diluted to a final concentration of 2 x 10^6/ml in medium containing 10 µg/ml PHA and 200 units/ml IL-2. […]

[1] = test system: sheep allergic to Ascaris suum; test: Sheep asthma model (Ascaris suum antigen challenge); format: in vivo
Procedure: Briefly, transpulmonary pressure, pulmonary resistance (RL), specific lung resistance (SRL airway hyperreactivity, airway responsiveness, are determined.
Venous blood samples (-5 ml) are obtained from a peripheral leg vein or the jugular vein for pharmacokinetic data. Measurement of Airway Mechanics: The unsedated sheep are restrained in a cart in the prone position with their heads immobilized. After topical anesthesia of the nasal passages with 2% lidocaine solution, a balloon catheter is advanced through one nostril into the lower esophagus. The animals are […] with a cuffed endotracheal tube through the other nostril using a flexible fiberoptic bronchoscope as a guide. (The cuff of the endotracheal tube is inflated only for the measurement of airway mechanics and during aerosol challenges to prevent undue discomfort. This procedure has no effect on airway mechanics). Pleural pressure is estimated with the esophageal balloon catheter (filled with one ml of air) which is positioned 5-10 cm from the gastroesophageal junction. In this position the end expiratory pleural pressure ranges between -2 and -5 cm H20. […] Lateral pressure in the trachea is measured with a sidehole catheter (inner dimension, 2.5 mm) advanced through and positioned distal to the tip of the endotracheal tube. Transpulmonary pressure, the difference between tracheal and pleural pressure, is measured with a differential pressure transducer catheter system. […] The signals of flow and transpulmonary pressure is recorded on an oscilloscope recorder which is linked to a computer for on-line calculation of RL from transpulmonary pressure, respiratory volume (obtained by digital integration) and flow. […] Immediately after the measurement of RL, thoracic gas volume (Vtg) is measured in a constant volume body plethysmograph to obtain specific lung resistance (SRL = RL . Vtg) in L x cm H20/LPS. […] To assess airway responsiveness, the cumulative carbachol dose in breath units (BU) that increases SRL 400% over the post-buffer value (i.e. PC400) is calculated from the dose response curve. […]

[2] = 3 mg/kg aerosol 30 min before antigen challenge, 2 sheep per group, FIG. 3A

## O=C(O)c1[nH]c2ccccc2c1Nc1ccncc1 [Example 28, 3-(4-Pyridinylamino)-1H-indole-2-carboxylic acid]
IFN-γ
  IC50: > 10 µM
[1]; [2]
  acute increase in specific lung resistance (SRL), early bronchial response: did not affect
  late bronchial response (SRL): blocked the late response
[1]; 3 mg/kg, 2 sheep, FIG. 3B
  post challenge airway responsiveness (PC400 decrease after antigen challenge): prevented this effect
